Measurements reported in patent US7378387B2, “Method of suppressing immune response by reducing intracellular content of glutathione in macrophages and monocytes” (Ajinomoto Co., Inc., priority 1997, dated 2008).

What was measured:
NO = NO production from macrophages induced through administration (Example 9, Table 1); format: in vivo, DBA/2 mice; conditions: LPS 100 ng/ml, IFNγ 100 units/ml
Protocol: A stimulator was added to 1×10^5 MΦ, and the incubation was conducted at 37° C. for 2 days in a CO2 incubator. After the completion of the centrifugation, the culture supernatant was collected.
One hundred microliters of a Griess-Romijn reagent (supplied by Waco Pure Chemical Industries, Ltd.) adjusted to a concentration of 50 mg/ml in distilled water were added to 100 μl of the culture supernatant, and the reaction was conducted at room temperature for 15 minutes. After the completion of reaction, an absorbance of 540 nm was measured. NaNO2 was used as a standard.
(§1) This was clarified by harvesting peritoneal exudate cells 20 hours after the completion of the administration, adhering the cells to the plastic surface, then reacting the cells with 10 μM of monochlorobimane at 37° C. for 30 minutes, and analyzing the reaction product with ACAS. The increase in the amounts of oxidative macrophages can easily be determined visually from the fact that almost no reaction product with monochlorobimane is observed, namely, a gray or blue image is provided, and the increase in the amounts of reductive macrophages from the fact that a red or yellow image is provided respectively. […] Meanwhile, the same examination was conducted by harvesting peritoneal exudate cells after 20 hours of the administration of 2 mg of N-acetylcystine (NAC).
(§2) Thus, the peritoneal exudate adherent cells were incubated in the following manner, and the amounts of NO and IL-12 produced in the culture supernatant were measured. With respect to the amount of IL-6, the amount of IL-6 produced spontaneously in the absence of a stimulator was measured.
(§3) Cells: The peritoneal exudate adherent cells obtained by the stimulation, namely, the macrophages were added to a 96-well microplate in an amount of 1×10^5 cells/200 μl each.
(§4) Medium: Phenol red-free RPMI 1640: 200 μl/well
LPS: Lipopolysaccharide (made by Sigma Co.) (origin: E. coli) 100 ng/ml

[1] = system: spontaneous onset of insulin-dependent diabetes mellitus; assay: Onset of diabetes mellitus in NOD mice dosed at age 9 to 11 weeks (Example 25); format: in vivo; conditions: nine times
Excerpt: NOD mice purchased from Nippon Clair, Co. were naturally mated together. Among the off spring mice, a colony of NOD mice with a high frequency of the spontaneous onset of insulin-dependent diabetes mellitus was established. Female NOD mice from the colony were used for the present experiment. Chemical agents were orally or intraperitoneally administered to the NOD mice aged 9 to 11 weeks three times per week, in total nine times; and based on the test results of urine glucose, positive or negative, the onset of diabetes mellitus was followed once per week. Urine glucose was detected, using Uropaper (BM Test Glucose 5000, manufactured by Yamanouchi Pharmaceuticals, Co. Ltd.). The onset was judged on week 22; the doses were the same as in Example 24.

[2] = system: spontaneous onset of insulin-dependent diabetes mellitus; assay: Onset of diabetes mellitus in NOD mice dosed at age 3 to 6 weeks (Example 23); format: in vivo; conditions: three times per week, nine times; for Frequency (%) of onset of diabetes mellitus, on age 18 weeks: saline 50; for Frequency (%) of onset of diabetes mellitus, on age 22 weeks: saline 80
Protocol: NOD mice purchased from Nippon Clair, Co. were naturally mated together. Among the off spring mice, a colony of NOD mice with a high frequency of the spontaneous onset of insulin-dependent diabetes mellitus was established. Female NOD mice from the colony were used for the present experiment. […] Urine glucose was detected, using Uropaper (BM Test Glucose 5000, manufactured by Yamanouchi Pharmaceuticals, Co. Ltd.). Chemical agents were administered intraperitoneally, unless otherwise stated. […] (NAC)2 and (NAC-OMe)2 were at a single dose of 20 μg/animal; and NAC and GSHOEt were at a single dose of 2 μg/animal; and a single dose of lentinan was 0.1 mg/kg.

[3] = system: peritoneal exudate cells (macrophages); assay: Induction of oxidative or reductive macrophages by administration, monochlorobimane/ACAS (Example 9); format: in vivo, DBA/2 mice; conditions: for type of macrophages induced (monochlorobimane, ACAS): Day 1 and Day 2, cells harvested 20 hours later, 20 μg (NAC-OMe)2 or (NAC)2, 10 μg acetylgliotoxin, 2 mg NAC intraperitoneally, 40 μg dexamethasone subcutaneously
Protocol: as §1

[4] = system: adjuvant-induced arthritis; assay: Adjuvant-induced arthritis (AA) in rats, joint swelling (Examples 18 and 19); format: in vivo, Lewis rats
Protocol: Adjuvant-induced arthritis was triggered in Lewis rats in a conventional manner; and the effects of chemical agents were examined in the animals. Adjuvant-induced arthritis is well known as an experimental arthritis inducible in rats [Taurog et al., Meth. Enzymol. 162, 339-355 (1988)]. […] An adjuvant is administered at 1 mg/0.1 ml per rate at a site of caudal root. The edema reaches its peak about 2 to 3 weeks after the administration of the adjuvant. The edema is triggered by inflammatory infiltration of monocytes. Swollen joints are measured with a micrometer every day; comparing the diameters of the joints prior to and after adjuvant administration and after initiation of the treatment with chemical agents with the diameters of the joints in the control group, the effects of the chemical agents were expressed as the ratio in % of joint swelling in the experimental groups to joint swelling in the control group. The effects were determined on day 15 after adjuvant administration. The chemical agents were given, starting the day next to the day of adjuvant administration, and every 3 days thereafter.
A single dose is 1 mg/kg for (NAC)2 and (NAC-OMe)2; 100 mg/kg for NAC; and 0.1 mg/kg for lentinan.
Adjuvant-induced arthritis was induced in Lewis rats in a conventional manner. In the same manner as in Example 11, the effects of chemical agents were examined in these rats. The conditions were the same as described above.

IL-6 = IL-6 production from macrophages induced through administration (Example 9, Table 1); format: in vivo, DBA/2 mice; parameters: concentration or dose not given beside the values; conditions: produced spontaneously in the absence of a stimulator
Protocol: A stimulator was added to 1×10^6 MΦ, and the incubation was conducted at 37° C. for 2 days in a CO2 incubator. After centrifugation, the culture supernatant was collected.
The amount of IL-6 was determined using IL-6 dependent mouse hybridoma MH60 cells (J. Eur. Immunol., vol. 18, p. 951, 1988). One hundred microliters of the culture supernatant were added to 100 μl of the MH60 cell suspension adjusted to 1×10^5 cells/ml in a 10% FCS-containing RPMI medium, and the mixed solution was incubated at 37° C. for 2 days in a CO2 incubator. Subsequently, 10 μl of MTT (supplied by Sigma Co.) solution adjusted to a concentration of 5 mg/ml in the same medium were added thereto, and the reaction was conducted at 37° C. for 5 hours. After the completion of the reaction, the centrifugation was conducted. The supernatant (160 μl) was removed, and 100 μl of a mixture of hydrochloric acid and propanol were added to the residue. The suspension was conducted using a pipetman to dissolve the cells. Immediately after the dissolution, an absorbance of 570 nm was measured with an immunometer (supplied by Bio-Rad).
as §1, §2, §3, §4

[5] = Table 3, day 15 after adjuvant, every 3 days, single dose 1 mg/kg (NAC)2 and (NAC-OMe)2, 100 mg/kg NAC, 0.1 mg/kg lentinan

Row | Structure (SMILES) | NO, amount produced relative to that of control group (NO) | Frequency (%) of onset of diabetes mellitus ([1]; route not given, judged on week 22, saline 67) | Frequency (%) of onset of diabetes mellitus, on age 18 weeks ([2]; intraperitoneal) | Frequency (%) of onset of diabetes mellitus, on age 22 weeks ([2]; intraperitoneal) | type of macrophages induced (monochlorobimane, ACAS) [3] | Ratio in % of joint swelling in experimental groups to joint swelling in control group [4, 5] | Ratio in % of joint swelling in experimental groups to joint swelling in control group ([4]; Table 4, intravenous) | IL-6, amount produced relative to that of control group (IL-6) | Frequency (%) of onset of diabetes mellitus ([1]; intraperitoneal, judged on week 22, doses as in Example 24, saline 67) | induction of oxidative macrophages on ACAS ([3]; intraperitoneally 20 μg/0.5 ml/h each, twice a week for three weeks, 9-11 weeks of age) | Frequency (%) of onset of diabetes mellitus ([1]; oral, judged on week 22, doses as in Example 24, saline 67) | Frequency (%) of onset of diabetes mellitus, on age 18 weeks ([2]; oral) | Frequency (%) of onset of diabetes mellitus, on age 22 weeks ([2]; oral) | Ratio in % of joint swelling in experimental groups to joint swelling in control group ([4]; Table 4, oral)
1 | CC(=O)N[C@@H](CSSC[C@H](NC(C)=O)C(=O)O)C(=O)O [(NAC)2, N,N′-diacetylcystine] | 18% | 60% | 60% | 80% | Oxidative macrophages were induced | 96% | 95% | 340% | – | – | – | – | – | –
2 | COC(=O)[C@H](CSSC[C@H](NC(C)=O)C(=O)OC)NC(C)=O [(NAC-OMe)2, N,N′-diacetylcystine dimethyl ester] | 12% | – | 70% | 80% | Oxidative macrophages were induced | 50% | 42% | 320% | 11% | induction of oxidative macrophages was confirmed | – | – | – | –
3 | CCOC(=O)CNC(=O)[C@H](CS)NC(=O)CC[C@H](N)C(=O)O [GSH-OEt, glutathione monoethyl ester] | – | – | 0% | 5% | – | – | – | – | – | – | – | – | – | –
4 | CC(=O)N[C@@H](CS)C(=O)O [NAC, N-acetylcysteine, reference compound] | 172% | – | 10% | 20% | reductive macrophages were induced | 132% | – | 42% | – | – | 60% | 30% | 40% | 142%
